According to patent US9725462B2, “Pyridopyrimidine derivatives as protein kinase inhibitors” (Merck Patent GmbH, priority 2012, dated 2017):
Structures can show the parent of a compound that is named as a salt.

Target: T1, SYK (Homo sapiens, UniProt P43405)
T1 construct: 2.5 nM SYK, 400 nM Biotin-Aha-Aha-KEDPDYEWPSAKK
Test: SYK Flash Plate Assay (enzyme assay)
Format: biochemical
Conditions: Syk inhibition
Excerpt: The following abbreviations refer respectively to the definitions below: • aq (aqueous), h (hour), g (gram), L (liter), mg (milligram), MHz (Megahertz), min. (minute), mm (millimeter), mmol (millimole), mM (millimolar), m.p. (melting point), eq (equivalent), mL (milliliter), L (microliter), ACN (acetonitrile), AcOH (acetic acid), CDCl3 (deuterated chloroform), CD3OD (deuterated methanol), CH3CN (acetonitrile), c-hex (cyclohexane), DCC (dicyclohexyl carbodiimide), DCM (dichloromethane), DIC (diisopropyl carbodiimide), DIEA (diisopropylethyl-amine), DMF (dimethylformamide), DMSO (dimethylsulfoxide), DMSO-d6 (deuterated dimethylsulfoxide), EDC (1-(3-dimethyl-amino-propyl)-3-ethylcarbodiimide), ESI (Electro-spray ionization), EtOAc (ethyl acetate), Et2O (diethyl ether), EtOH (ethanol), HATU (dimethylamino-([1,2,3]triazolo[4,5-b]pyridin-3-yloxy)-methylene]-dimethyl-ammonium hexafluorophosphate), HPLC (High Performance Liquid Chromatography), i-PrOH (2-propanol), K2CO3 (potassium carbonate), LC (Liquid Chromatography), MeOH (methanol), MgSO4 (magnesium sulfate), MS (mass spectrometry), MTBE (Methyl tert-butyl ether), NaHCO3 (sodium bicarbonate), NaBH4 (sodium borohydride), NMM (N-methyl morpholine), NMR (Nuclear Magnetic Resonance), PyBOP (benzotriazole-1-yl-oxy-tris-pyrrolidino-phosphonium hexafluorophosphate), RT (room temperature), Rt (retention time), SPE (solid phase extraction), TBTU (2-(1-H-benzotriazole-1-yl)-1,1,3,3-tetramethyluromium tetrafluoro borate), TEA (triethylamine), TFA (trifluoroacetic acid), THF (tetrahydrofuran), TLC (Thin Layer Chromatography), UV (Ultraviolet). Description of the In Vitro Assays SYK Flash Plate Assay
The kinase assay is performed either as 384-well Flashplate assay (for e.g. Topcount measurement) or as 384-well Image-Flashplate assay (for LEADseeker measurement).
2.5 nM SYK, 400 nM Biotin-Aha-Aha-KEDPDYEWPSAKK
and 10 μM ATP (spiked with 0.3 μCi 33P-ATP/well) are incubated in a total volume of 50 μl (60 mM Hepes, 10 mM MgCl2, 1.2 mM Dithiothreitol, 0.02% Brij35, 0.1% BSA, pH 7.5) with or without test compound for 1 hours at 30° C. The reaction is stopped with 25 μl 200 mM EDTA. After 30 Min at 30° C. the liquid is removed and each well washed thrice with 100 μl 0.9% sodium chloride solution. Non-specific reaction is determined in presence of 0.1 μM Staurosporine. Radioactivity is measured with Topcount (when using Flashplates) or with LEADseeker (when using Image-Flashplates) respectively. Results (e.g. IC50-values) are calculated with program tools provided by the IT-department (e.g. Symyx Assay Explorer, Genedata Screener). In Vivo Assays CIA

| Structure (SMILES) | IC50 [µM] |
| --- | --- |
| N#Cc1ccc2[nH]cc(-c3cncc4cnc(N[C@@H]5CCCC[C@@H]5N)nc34)c2c1 [Compound A44, 3-[2-((1 R,2S)-2-Amino-cyclohexylamino)-pyrido[4,3-d]pyrimidin-8-yl]-1H-indole-5-carbonitrile] | 0.1 to 1 |
| N[C@H]1COCC[C@H]1Nc1ncc2cncc(-c3c[nH]c4ccccc34)c2n1 [Compound A68, (3R,4R)-N4-[8-(1H-Indol-3-yl)-pyrido[4,3-d]pyrimidin-2-yl]-tetrahydro-pyran-3,4-diamine] | < 0.1 |
| Cn1cc(-c2cnc(N)c3cnc(N4CCC(CO)CC4)nc23)cn1 [Compound A5, {1-[5-Amino-8-(1-methyl-1H-pyrazol-4-yl)-pyrido[4,3-d]pyrimidin-2-yl]-piperidin-4-yl}-methanol] | 1 to 50 |
| Nc1ncc(-c2cc3ccccc3[nH]2)c2nc(N[C@@H]3CCCC[C@@H]3N)ncc12 (relative stereo) [Compound A10, N2-(cis-2-Amino-cyclohexyl)-8-(1H-indol-2-yl)-pyrido[4,3-d]pyrimidine-2,5-diamine] | < 0.1 |
| COc1cccc(C#Cc2cncc3cnc(N[C@H]4CCCC[C@H]4N)nc23)c1 (stereo in doubt) [Compound A35, (1S,2R)-N-[8-(3-Methoxy-phenylethynyl)-pyrido[4,3-d]pyrimidin-2-yl]-cyclohexane-1,2-diamine] | 0.1 to 1 |
| Cc1ncc(-c2c[nH]c3cc(C(F)(F)F)ccc23)c2nc(N[C@@H]3CCCC[C@@H]3N)ncc12 (single isomer, unassigned) [Compound A88] | 1 to 50 |
| CC(C)Cn1cc(-c2cnc(N)c3cnc(N[C@H]4CCCC[C@H]4N)nc23)cn1 (relative stereo) [Compound A8, N2-(cis-2-Amino-cyclohexyl)-8-(1-isobutyl-1H-pyrazol-4-yl)-pyrido[4,3-d]pyrimidine-2,5-diamine] | 0.1 to 1 |
| Cn1cc(-c2cnc(N)c3cnc(N[C@@H]4CCCC[C@@H]4N)nc23)cn1 (single isomer, unassigned) [Compound A1, N2-((cis)-2-Amino-cyclohexyl)-8-(1-methyl-1H-pyrazol-4-yl)-pyrido[4,3-d]-pyrimidine-2,5-diamine] | < 0.1 |
| Cn1cc(-c2cnc(N)c3cnc(NCCN)nc23)cn1 [Compound A6, N2-(2-Amino-ethyl)-8-(1-methyl-1H-pyrazol-4-yl)-pyrido[4,3-d]-pyrimidine-2,5-diamine] | 1 to 50 |
| Nc1ncc(-c2c[nH]c3ccccc23)c2nc(N[C@H]3CCCC[C@H]3N)ncc12 (relative stereo) [Compound A24, N2-(cis-2-Amino-cyclohexyl)-8-(1H-indol-3-yl)-pyrido[4,3-d]pyrimidine-2,5-diamine] | < 0.1 |
| CC(C)n1cc(-c2cncc3cnc(N[C@@H]4CCCC[C@@H]4N)nc23)cn1 [Compound A26, (1S,2R)-[8-(1-Isopropyl-1H-pyrazol-4-yl)-pyrido[4,3-d]pyrimidin-2-yl]-cyclohexane-1,2-diamine] | 1 to 50 |
| NC1CCOCC1Nc1ncc2cncc(-c3c[nH]c4cc(C(F)(F)F)ccc34)c2n1 (stereo not drawn) [Compound A49, cis-N3-[8-[6-(trifluoromethyl)-1H-indol-3-yl]pyrido[4,3-d]pyrimidin-2-yl]tetrahydropyran-3,4-diamine] | < 0.1 |
| Cc1cccc2[nH]c(-c3cncc4cnc(N[C@H]5CCCC[C@H]5N)nc34)cc12 (stereo in doubt) [Compound A66, (1S,2R)-N-[8-(4-Methyl-1H-indol-2-yl)-pyrido[4,3-d]pyrimidin-2-yl]-cyclohexane-1,2-diamine] | 1 to 50 |
| N[C@H]1CCCC[C@H]1Nc1ncc2cncc(-c3ccc4[nH]c(=O)[nH]c4c3)c2n1 [Compound A37, 5-[2-((1R,2S)-2-Amino-cyclohexylamino)-pyrido[4,3-d]pyrimidin-8-yl]-1,3-dihydro-benzimidazol-2-one] | 1 to 50 |
| FC1(CNc2ncc3cncc(-c4c[nH]c5cc(C(F)(F)F)ccc45)c3n2)CCCNC1 (single isomer, unassigned) [Compound A79, (3-fluoro-piperidin-3-ylmethyl)-[8-(6-trifluoromethyl-1H-indol-3-yl)-pyrido[4,3-d]pyrimidin-2-yl]-amine] | 1 to 50 |
| Cc1nn(C)cc1-c1cncc2cnc(N[C@@H]3CCCC[C@@H]3N)nc12 (relative stereo) [Compound A25, cis-N-[8-(1,3-Dimethyl-1H-pyrazol-4-yl)-pyrido[4,3-d]pyrimidin-2-yl]-cyclohexane-1,2-diamine] | 1 to 50 |
| N[C@@H]1CCCC[C@@H]1Nc1ncc2cncc(-c3cc4n(n3)CCOC4)c2n1 (stereo in doubt) [Compound A43, (1S,2R)-N-[8-(6,7-Dihydro-4H-pyrazolo[5,1-c][1,4]oxazin-2-yl)-pyrido[4,3-d]pyrimidin-2-yl]-cyclohexane-1,2-diamine] | 1 to 50 |
| N[C@@H]1CCCC[C@@H]1Nc1ncc2cncc(-c3c[nH]c4ccccc34)c2n1 (stereo in doubt) [Compound A27, (1S,2R)-N-[8-(1H-Indol-3-yl)-pyrido[4,3-d]pyrimidin-2-yl]-cyclohexane-1,2-diamine] | < 0.1 |
| N#Cc1ccc2c(-c3cncc4cnc(NC5CCCCC5)nc34)c[nH]c2c1 [Compound A80, 3-(2-cyclohexylamino-pyrido[4,3-d]pyrimidin-8-yl)-1H-indole-6-carbonitrile] | 1 to 50 |
| Cc1cccc(-c2cnc(N)c3cnc(N[C@H]4CCCC[C@H]4N)nc23)c1 (single isomer, unassigned) [Compound A21, N2-((cis)-2-Amino-cyclohexyl)-8-m-tolyl-pyrido[4,3-d]pyrimidine-2,5-diamine] | 1 to 50 |
| Cn1cc(-c2cnc(C(F)F)c3cnc(N[C@@H]4CCCC[C@@H]4N)nc23)cn1 [Compound A91, (1R,2S)—N-[5-difluoromethyl-8-(1-methyl-1H-pyrazol-4-yl)-pyrido-[4,3-d]pyrimidin-2-yl]-cyclohexane-1,2-diamine] | 0.1 to 1 |
| N#Cc1ccc2[nH]c(-c3cnc(N)c4cnc(N[C@@H]5CCCC[C@@H]5N)nc34)cc2c1 (relative stereo) [Compound A23, 2-[5-Amino-2-((cis)-2-amino-cyclohexylamino)-pyrido[4,3-d]-pyrimidin-8-yl]-1H-indole-5-carbonitrile] | 0.1 to 1 |
| CC(C)C[C@@H](Nc1ncc2cncc(-c3c[nH]c4cc(C(F)(F)F)ccc34)c2n1)C(N)=O [Compound A62, (2R)-4-Methyl-2-[[8-[6-(trifluoromethyl)-1H-indol-3-yl]pyrido[4,3-d]-pyrimidin-2-yl]amino]pentanamide] | < 0.1 |
| CC(C)C[C@@H](Nc1ncc2cncc(-c3c[nH]c4cc(C#N)ccc34)c2n1)C(N)=O [Compound A65, (R)-2-[8-(6-Cyano-1H-indol-3-yl)-pyrido[4,3-d]pyrimidin-2-yl-amino]-4-methyl-pentanoic acid amide] | < 0.1 |
| N[C@@H]1CCCC[C@@H]1Nc1ncc2cncc(-c3cc4n(n3)CCCC4)c2n1 (stereo in doubt) [Compound A33, (1S,2R)-N-[8-(4,5,6,7-Tetrahydro-pyrazolo[1,5-a]pyridin-2-yl)-pyrido[4,3-d]pyrimidin-2-yl]-cyclohexane-1,2-diamine] | 1 to 50 |
| COC[C@H](N)CNc1ncc2cncc(-c3cccc(C)c3)c2n1 [Compound A30, (R)-3-Methoxy-N1-(8-m-tolyl-pyrido[4,3-d]pyrimidin-2-yl)-propane-1,2-diamine] | 1 to 50 |
| N[C@@H]1CCCC[C@@H]1Nc1ncc2cncc(-c3c[nH]c4cc(C(F)(F)F)ccc34)c2n1 (stereo in doubt) [Compound A41, (1S,2R)-N-[8-(6-Trifluoromethyl-1H-indol-3-yl)-pyrido[4,3-d]pyrimidin-2-yl]-cyclohexane-1,2-diamine] | < 0.1 |
| Cn1cc(-c2cncc3cnc(N[C@@H]4CCCC[C@@H]4N)nc23)cn1 [Compound A2, (1R,2S)—N-[8-(1-Methyl-1H-pyrazol-4-yl)-pyrido[4,3-d]pyrimidin-2-yl]-cyclohexane-1,2-diamine hydrochloride] | 0.1 to 1 |
| NC(=O)c1ccc2c(-c3cncc4cnc(N[C@@H]5CCCC[C@@H]5N)nc34)c[nH]c2c1 [Compound A77, 3-[2-((1R,2S)-2-amino-cyclohexylamino)-pyrido[4,3-d]pyrimidin-8-yl]-1H-indole-6-carboxylic acid amide] | < 0.1 |
| CC1(C)CCOc2cc(-c3cncc4cnc(N[C@@H]5CCCC[C@@H]5N)nc34)ccc21 [Compound A29] | 1 to 50 |
